What was measured:
[1] = Cytotoxicity against human SKOV3 cells assessed as reduction in cell viability after 48 hrs by MTT assay; type: functional, cell-based; conditions: SK-OV-3, 48 h
[2] = Cytotoxicity against human MDA-MB-231 cells assessed as reduction in cell viability after 48 hrs by MTT assay; type: functional, cell-based; conditions: MDA-MB-231, 48 h
[3] = Cytotoxicity against human HCT116 cells assessed as reduction in cell viability after 48 hrs by MTT assay; type: functional, cell-based; conditions: HCT-116, 48 h
[4] = Cytotoxicity against human MCF10A cells assessed as reduction in cell viability after 48 hrs by MTT assay; type: toxicity, cell-based, MCF-10A
[5] = Cytotoxicity against human WI38 cells assessed as reduction in cell viability after 48 hrs by MTT assay; type: toxicity, cell-based, WI-38
[6] = Selectivity ratio of IC50 for human MCF10A cells to IC50 for human SKOV3 cells; type: ADME, cell-based, MCF-10A; conditions: MCF10A cells versus SKOV3 cells, read-out: Ratio IC50
[7] = Selectivity ratio of IC50 for human WI38 cells to IC50 for human SKOV3 cells; type: ADME, cell-based, SK-OV-3; conditions: WI38 cells versus SKOV3 cells, read-out: Ratio IC50
[8] = Selectivity ratio of IC50 for human WI38 cells to IC50 for human MDA-MB-231 cells; type: ADME, cell-based, WI-38; conditions: WI38 cells versus MDA-MB-231 cells, read-out: Ratio IC50

Row | Compound | IC50 [1] | IC50 [2] | IC50 [3] | IC50 at 48 h [4] | IC50 at 48 h [5] | selectivity ratio [6] | selectivity ratio [7] | selectivity ratio [8]
1 | O=C(/C=C/c1ccc2c(c1)B(O)OC2)c1ccc(O)cc1 | 13 µM | 25.6 µM | 24.1 µM | 24.8 µM | > 100 µM | – | – | –
2 | CCc1ccc(C(=O)/C=C/c2ccc3c(c2)B(O)OC3)cc1 | 4.4 µM | 9.8 µM | 10.9 µM | 8.8 µM | 20.6 µM | – | – | –
3 | Cc1ccc(C(=O)/C=C/c2ccc3c(c2)B(O)OC3)cc1 | 3.7 µM | 6.5 µM | 10.5 µM | 8.3 µM | 22.2 µM | – | – | –
4 | CCOC(=O)c1ccc(C(=O)/C=C/c2ccc3c(c2)B(O)OC3)cc1 | 7.1 µM | 13 µM | 7.6 µM | 12.9 µM | 47.2 µM | – | – | –
5 | O=C(/C=C/c1ccc2c(c1)B(O)OC2)c1ccc([N+](=O)[O-])cc1 | 7.9 µM | 11.2 µM | 9.1 µM | 17.5 µM | 39.3 µM | – | – | –
6 | CSc1ccc(C(=O)/C=C/c2ccc3c(c2)B(O)OC3)cc1 | 4.1 µM | 9.8 µM | 10.3 µM | 7.4 µM | 54.3 µM | – | – | –
7 | COc1cccc2c1C(=O)c1c(O)c3c(c(O)c1C2=O)C[C@@](O)(C(=O)CO)C[C@@H]3O[C@H]1C[C@H](N)[C@H](O)[C@H](C)O1 [DOXORUBICIN] | 0.42 µM | – | 0.31 µM | 0.06 µM | 9 µM | – | – | –
8 | COc1cc(C(=O)/C=C/c2ccc3c(c2)B(O)OC3)ccc1N | 1.7 µM | 24.3 µM | 27.9 µM | 17.6 µM | > 100 µM | – | – | –
9 | COCOc1ccccc1C(=O)/C=C/c1ccc2c(c1)B(O)OC2 | 6.5 µM | 10.2 µM | 10.2 µM | 11.7 µM | 27 µM | – | – | –
10 | O=C(/C=C/c1ccc2c(c1)B(O)OC2)c1ccc(I)cc1 | 4.2 µM | 14.9 µM | 11.6 µM | > 100 µM | > 100 µM | > 25 | > 25 | –
11 | COc1cc(C(=O)/C=C/c2ccc3c(c2)B(O)OC3)cc(OC)c1OC | 5.7 µM | 10.6 µM | 7.9 µM | 48.5 µM | 18.5 µM | – | – | –
12 | O=C(/C=C/c1ccc2c(c1)B(O)OC2)c1ccc(O)c(O)c1 | > 100 µM | 67.6 µM | > 100 µM | > 100 µM | > 100 µM | – | – | –
13 | COc1ccc(C(=O)/C=C/c2ccc3c(c2)B(O)OC3)c(OC)c1 | 6.1 µM | 11.2 µM | 16.2 µM | 12.2 µM | 86.3 µM | – | – | –
14 | COCOc1cccc(C(=O)/C=C/c2ccc3c(c2)B(O)OC3)c1 | 11.7 µM | 4.5 µM | 13.3 µM | 48.1 µM | 33.2 µM | – | – | –
15 | COc1cccc(C(=O)/C=C/c2ccc3c(c2)B(O)OC3)c1 | 2.6 µM | 2.1 µM | 5 µM | 7.4 µM | 14.6 µM | – | – | –
16 | O=C(/C=C/c1ccc2c(c1)B(O)OC2)c1cccc(F)c1 | 4.8 µM | 3 µM | 6.7 µM | 15.8 µM | 26.7 µM | – | – | –
17 | O=C(/C=C/c1ccc2c(c1)B(O)OC2)c1ccc(Br)cc1 | 4.5 µM | 9.5 µM | 9.9 µM | 27.8 µM | 36.7 µM | – | – | –
18 | O=C(/C=C/c1ccc2c(c1)B(O)OC2)c1cccc2ccccc12 | 2.7 µM | 3.6 µM | 5 µM | 13.4 µM | 18.8 µM | – | – | –
19 | Nc1cccc(C(=O)/C=C/c2ccc3c(c2)B(O)OC3)c1 | 7.4 µM | 3.2 µM | 4.5 µM | 19.6 µM | 25.3 µM | – | – | –
20 | O=C(/C=C/c1ccc2c(c1)B(O)OC2)c1ccc2c(c1)OCCO2 | 7.3 µM | 7.9 µM | 10.3 µM | 11.7 µM | 30.2 µM | – | – | –
21 | O=C(/C=C/c1ccc2c(c1)B(O)OC2)c1ccccc1 | 3.4 µM | 2.3 µM | 6.1 µM | 15.9 µM | 19.1 µM | – | – | 8

Row | Compound | IC50 [1] | IC50 [2] | IC50 [3] | IC50 at 48 h [4] | IC50 at 48 h [5] | selectivity ratio [6] | selectivity ratio [7] | selectivity ratio [8]
22 | COc1ccc(C(=O)/C=C/c2ccc3c(c2)B(O)OC3)cc1OC | 4.8 µM | 13.2 µM | 12.2 µM | 13.5 µM | 33.5 µM | – | – | –
23 | COc1ccccc1C(=O)/C=C/c1ccc2c(c1)B(O)OC2 | 2.6 µM | 3.1 µM | 5 µM | 9.1 µM | 21.7 µM | – | – | –
24 | O=C(/C=C/c1ccc2c(c1)B(O)OC2)c1ccccc1F | 3.7 µM | 2.2 µM | 4.2 µM | 25.4 µM | 23.6 µM | – | – | –
25 | O=C(/C=C/c1ccc2c(c1)B(O)OC2)c1ccc(-c2ccccc2)cc1 | 4.9 µM | 6.4 µM | 9.5 µM | 20.7 µM | 18.3 µM | – | – | –
26 | O=C(/C=C/c1ccc2c(c1)B(O)OC2)c1ccc(F)cc1 | 1.4 µM | 1.6 µM | 2.8 µM | 11.8 µM | 7.6 µM | – | – | –
27 | Cc1cccc(C(=O)/C=C/c2ccc3c(c2)B(O)OC3)c1 | 2.9 µM | 4.5 µM | 6.7 µM | 15.9 µM | 16.7 µM | – | – | –
28 | O=C(/C=C/c1ccc2c(c1)B(O)OC2)c1ccco1 | 20.7 µM | 7.3 µM | 24.1 µM | 7.4 µM | 59 µM | – | – | –
29 | O=C(/C=C/c1ccc2c(c1)B(O)OC2)c1ccc(Cl)cc1 | 3.7 µM | 7.9 µM | 9.3 µM | 12.1 µM | 24.7 µM | – | – | –
30 | Nc1ccc(C(=O)/C=C/c2ccc3c(c2)B(O)OC3)cc1 | 20.2 µM | 25.8 µM | 26.1 µM | 19.9 µM | 25.4 µM | – | – | –
31 | O=C(O)c1ccc(C(=O)/C=C/c2ccc3c(c2)B(O)OC3)cc1 | > 100 µM | > 100 µM | > 100 µM | > 100 µM | > 100 µM | – | – | –
32 | O=C(/C=C/c1ccc2c(c1)B(O)OC2)c1ccccc1O | 48.8 µM | 16.9 µM | 77.9 µM | 53.7 µM | > 100 µM | – | – | –
33 | O=C(/C=C/c1ccc2c(c1)B(O)OC2)c1cccs1 | 10.4 µM | 4.6 µM | 14.2 µM | 13.8 µM | 26 µM | – | – | –
34 | O=C(/C=C/c1ccc2c(c1)B(O)OC2)c1cccnc1 | 18.5 µM | 11.4 µM | 20.5 µM | 34.4 µM | 76.2 µM | – | – | –
35 | O=C(/C=C/c1ccc2c(c1)B(O)OC2)c1ccc(C(F)(F)F)cc1 | 3.7 µM | 9.2 µM | 6.3 µM | 22.3 µM | 22.6 µM | – | – | –
36 | Cn1cccc1C(=O)/C=C/c1ccc2c(c1)B(O)OC2 | 93.6 µM | > 100 µM | > 100 µM | > 100 µM | > 100 µM | – | – | –
37 | O=C(/C=C/c1ccc2c(c1)B(O)OC2)c1ccc(OCc2ccccc2)cc1 | 6 µM | 5.3 µM | 12.1 µM | 23.3 µM | > 100 µM | – | – | –
38 | COc1cc(C(=O)/C=C/c2ccc3c(c2)B(O)OC3)ccc1[N+](=O)[O-] | 1.7 µM | 11.4 µM | 4.1 µM | 3.6 µM | 26 µM | – | – | –
39 | Cc1ccc(C(=O)/C=C/c2ccc3c(c2)B(O)OC3)cc1C | 1.9 µM | 5.3 µM | 6.1 µM | 4.7 µM | 22 µM | – | – | –
40 | O=C(/C=C/c1ccc2c(c1)B(O)OC2)c1cccc(O)c1 | 3.8 µM | 2.7 µM | 6.5 µM | 25.3 µM | 26.4 µM | – | – | –
41 | O=C(/C=C/c1ccc2c(c1)B(O)OC2)c1ccc(Cl)c(Cl)c1 | 1.8 µM | 3.4 µM | 3.2 µM | 14.9 µM | 12.5 µM | – | – | –
